For orientation: Ki means a measure of affinity in units of concentration, obtained from inhibition or displacement.

The results in this text go back to patent US7544704B2, “Aryl-4-ethynyl-isoxazole derivatives” (Hoffmann-La Roche Inc., priority 2006, dated 2009).

The assay has as its target T1, human GABA A receptor α5β3γ2 (Homo sapiens, UniProt P18507+P31644).
T1 construct: expressed in transfected cells; host or cells: HEK293 (transiently transfected), membranes
The assay can be described thus: [3H]flumazenil competition binding to HEK293 cell membranes expressing human GABA A α5β3γ2. As to conditions: displacement of [3H]flumazenil (0.5 nM), human α5β3γ2 transiently transfected in HEK293, means of two determinations; read-out: Ki[nM] hα5. The protocol:
Membrane Preparation and Binding Assay
The affinity of compounds at GABA A receptor subtypes was measured by competition for [3H]flumazenil (85 Ci/mmol; Roche) binding to HEK293 cells expressing rat (stably transfected) or human (transiently transfected) receptors of composition α1β3γ2, α2β3γ2, α3β3γ2 and α5β3γ2.
Cell pellets were suspended in Krebs-tris buffer (4.8 mM KCl, 1.2 mM CaCl2, 1.2 mM MgCl2, 120 mM NaCl, 15 mM Tris; pH 7.5; binding assay buffer), homogenized by polytron for ca. 20 sec on ice and centrifuged for 60 min at 4° C. (50000 g; Sorvall, rotor: SM24=20000 rpm). The cell pellets were resuspended in Krebs-tris buffer and homogenized by polytron for ca. 15 sec on ice. Protein was measured (Bradford method, Bio-Rad) and aliquots of 1 mL were prepared and stored at −80° C.
Radioligand binding assays were carried out in a volume of […] (96-well plates) which contained […] of cell membranes, [3H]flumazenil at a concentration of 1 nM for α1, α2, α3 subunits and 0.5 nM for a5 subunits and the test compound in the range of […]. Nonspecific binding was defined by 10^−5 M diazepam and typically represented less than 5% of the total binding. Assays were incubated to equilibrium for 1 hour at 4° C. and harvested onto GF/C uni-filters (Packard) by filtration using a Packard harvester and washing with ice-cold wash buffer (50 mM Tris; pH 7.5). After drying, filter-retained radioactivity was detected by liquid scintillation counting. Ki values were calculated using Excel-Fit (Microsoft) and are the means of two determinations.
Background: In a radioligand displacement assay an active substance lowers the binding of a labelled ligand.

Consider `Cc1csc(NC(=O)c2ccnc(C#Cc3c(-c4ccccc4)noc3C)c2)n1` [Example 29, 2-(5-Methyl-3-phenyl-isoxazol-4-ylethynyl)-N-(4-methyl-thiazol-2-yl)-isonicotinamide], for which the Ki came to 90.1 nM.

With `COC(=O)c1csc(C#Cc2c(-c3ccccc3)noc2C)n1` [Example 61, 2-(5-Methyl-3-phenyl-isoxazol-4-ylethynyl)-thiazole-4-carboxylic acid methyl ester], the Ki is 31.9 nM.

Take `Cc1onc(-c2ccccc2)c1C#Cc1ccc(N)cn1` [Example 41, 6-(5-Methyl-3-phenyl-isoxazol-4-ylethynyl)-pyridin-3-ylamine]: the Ki was determined as 55.7 nM.

Regarding `Cc1onc(-c2ccccc2)c1C#Cc1cc(C(=O)NCC2CC2)ccn1` [Example 27, N-Cyclopropylmethyl-2-(5-methyl-3-phenyl-isoxazol-4-ylethynyl)-isonicotinamide], the Ki was 39.8 nM.

As for `Cc1onc(-c2ccccc2)c1C#Cc1ncc(-c2ccccc2)n1C` [Example 32, 5-Methyl-4-(1-methyl-5-phenyl-1H-imidazol-2-ylethynyl)-3-phenyl-isoxazole], the Ki was 28.4 nM.

Regarding `Cc1ccc(C#Cc2c(-c3ccccc3)noc2C)nn1` [Example 19, 3-Methyl-6-(5-methyl-3-phenyl-isoxazol-4-ylethynyl)-pyridazine], the Ki came to 26.6 nM.

For `Cc1onc(-c2ccccc2)c1C#Cc1cc(C(F)(F)F)ccn1` [Example 38, 2-(5-Methyl-3-phenyl-isoxazol-4-ylethynyl)-4-trifluoromethyl-pyridine], the Ki was 37 nM.

With `Cc1ncc(C#Cc2c(-c3ccccc3)noc2C)[nH]1` [Example 22, 5-Methyl-4-(2-methyl-3H-imidazol-4-ylethynyl)-3-phenyl-isoxazole], the Ki was determined as 77.2 nM.

With `Cc1onc(-c2ccccc2)c1C#Cc1cc(-c2ccc(F)cc2)n(C)n1` [Example 53, 4-[5-(4-Fluoro-phenyl)-1-methyl-1H-pyrazol-3-ylethynyl]-5-methyl-3-phenyl-isoxazole], the Ki stood at 52.6 nM.

With `CCOC(=O)c1nc(C)sc1C#Cc1c(-c2ccccc2)noc1C` [Example 24, 2-Methyl-5-(5-methyl-3-phenyl-isoxazol-4-ylethynyl)-thiazole-4-carboxylic acid ethyl ester], the Ki came to 85.2 nM.

For the compound `Cc1onc(-c2ccccc2)c1C#Cc1ncc(C)n1-c1ccccc1` [Example 33, 5-Methyl-4-(5-methyl-1-phenyl-1H-imidazol-2-ylethynyl)-3-phenyl-isoxazole], the inhibition constant Ki turned out to be 23.7 nM.

On to `CCOC(=O)c1c(C)nc(C#Cc2c(-c3ccccc3)noc2C)n1C` [Example 50, 3,5-Dimethyl-2-(5-methyl-3-phenyl-isoxazol-4-ylethynyl)-3H-imidazole-4-carboxylic acid ethyl ester], for which the inhibition constant Ki is 7.3 nM.

On to `Cc1onc(-c2ccccc2)c1C#Cc1nc(C)n(-c2cc(F)cc(F)c2)c1C` [Example 56, 4-[1-(3,5-Difluoro-phenyl)-2,5-dimethyl-1H-imidazol-4-ylethynyl]-5-methyl-3-phenyl-isoxazole], for which the Ki was 23.5 nM.

As to `Cc1onc(-c2ccc(Cl)cc2)c1C#Cc1ccccn1` [Example 59, 2-[3-(4-Chloro-phenyl)-5-methyl-isoxazol-4-ylethynyl]-pyridine], the Ki was found to be 54.5 nM.

As to `Cc1onc(-c2ccccc2)c1C#Cc1nc(C)n(-c2ccc(F)cc2)c1C` [Example 57, 4-[1-(4-Fluoro-phenyl)-2,5-dimethyl-1H-imidazol-4-ylethynyl]-5-methyl-3-phenyl-isoxazole], the Ki stood at 39.1 nM.

Consider `COC(=O)c1ccccc1C#Cc1c(-c2ccccc2)noc1C` [Example 12, 2-(5-Methyl-3-phenyl-isoxazol-4-ylethynyl)-benzoic acid methyl ester], for which the Ki was found to be 87.3 nM.

Consider `Cc1cccnc1C#Cc1c(-c2ccccc2)noc1C` [Example 39, 3-Methyl-2-(5-methyl-3-phenyl-isoxazol-4-ylethynyl)-pyridine], for which the inhibitory constant (Ki) turned out to be 28.9 nM.

In the case of `Cc1c[nH]nc1C#Cc1c(-c2ccccc2)noc1C` [Example 23, 5-Methyl-4-(4-methyl-1H-pyrazol-3-ylethynyl)-3-phenyl-isoxazole], the Ki amounted to 53 nM.

As to `Cc1cnc(C)c(C#Cc2c(-c3ccccc3)noc2C)n1` [Example 26, 2,5-Dimethyl-3-(5-methyl-3-phenyl-isoxazol-4-ylethynyl)-pyrazine], the Ki is 10.4 nM.

Consider `Cc1onc(-c2ccccc2)c1C#Cc1nc2n(c1C)CCCC2` [Example 52, 3-Methyl-2-(5-methyl-3-phenyl-isoxazol-4-ylethynyl)-5,6,7,8-tetrahydro-imidazo[1,2-a]pyridine], for which the Ki is 15.5 nM.

On to `Cc1onc(-c2ccccc2)c1C#Cc1cccc(C(=O)NC2CCOCC2)c1` [Example 8, 3-(5-Methyl-3-phenyl-isoxazol-4-ylethynyl)-N-(tetrahydro-pyran-4-yl)-benzamide], for which the Ki was 91.6 nM.

Take `Cc1onc(-c2ccccc2)c1C#Cc1cc(C(=O)NC2CCOCC2)ccn1` [Example 28, 2-(5-Methyl-3-phenyl-isoxazol-4-ylethynyl)-N-(tetrahydro-pyran-4-yl)-isonicotinamide]: the Ki amounted to 20.7 nM.

Consider `Cc1cccc(C#Cc2c(-c3ccccc3)noc2C)n1` [Example 35, 2-Methyl-6-(5-methyl-3-phenyl-isoxazol-4-ylethynyl)-pyridine], for which the inhibition constant (Ki) amounted to 39.3 nM.

Turning to `Cc1ccnc(C#Cc2c(-c3ccccc3)noc2C)c1` [Example 37, 4-Methyl-2-(5-methyl-3-phenyl-isoxazol-4-ylethynyl)-pyridine], the Ki amounted to 48 nM.

Consider `Cc1onc(-c2ccccc2)c1C#Cc1ccccn1` [Example 1, 2-(5-Methyl-3-phenyl-isoxazol-4-ylethynyl)-pyridine], for which the inhibition constant (Ki) stood at 47.9 nM.

Turning to `Cc1onc(-c2ccccc2)c1C#Cc1cnc2ccccc2n1` [Example 45, 2-(5-Methyl-3-phenyl-isoxazol-4-ylethynyl)-quinoxaline], the Ki stood at 84.4 nM.

With `Cc1onc(-c2ccccc2)c1C#Cc1ccccc1N` [Example 14, 2-(5-Methyl-3-phenyl-isoxazol-4-ylethynyl)-phenylamine], the Ki was 38.4 nM.

Turning to `COC(=O)c1ccnc(C#Cc2c(-c3ccccc3)noc2C)c1` [Example 17, 2-(5-Methyl-3-phenyl-isoxazol-4-ylethynyl)-isonicotinic acid methyl ester], the Ki was 74.9 nM.

Take `Cc1onc(-c2ccccc2)c1C#Cc1cnc(N)cn1` [Example 47, 5-(5-Methyl-3-phenyl-isoxazol-4-ylethynyl)-pyrazin-2-ylamine]: the Ki stood at 37.2 nM.

`CCc1ccnc(C#Cc2c(-c3ccccc3)noc2C)c1` [Example 44, 4-Ethyl-2-(5-methyl-3-phenyl-isoxazol-4-ylethynyl)-pyridine]: the Ki was 38.9 nM.

`Cc1onc(-c2ccccc2)c1C#Cc1ccc(Cl)cn1` [Example 42, 5-Chloro-2-(5-methyl-3-phenyl-isoxazol-4-ylethynyl)-pyridine]: the Ki is 81.7 nM.

For `Cc1onc(-c2ccccc2)c1C#Cc1cnccn1` [Example 34, 2-(5-Methyl-3-phenyl-isoxazol-4-ylethynyl)-pyrazine], the Ki was 59.2 nM.

For `Cc1ccc(C#Cc2c(-c3ccccc3)noc2C)nc1` [Example 31, 5-Methyl-2-(5-methyl-3-phenyl-isoxazol-4-ylethynyl)-pyridine], the Ki amounted to 45.5 nM.

With `Cc1onc(-c2ccccc2)c1C#Cc1cccc(Cl)n1` [Example 30, 2-Chloro-6-(5-methyl-3-phenyl-isoxazol-4-ylethynyl)-pyridine], the Ki was determined as 71.9 nM.

Regarding `Cc1onc(-c2ccccc2)c1C#Cc1nccn1C` [Example 21, 5-Methyl-4-(1-methyl-1H-imidazol-2-ylethynyl)-3-phenyl-isoxazole], the Ki is 26 nM.

On to `Cc1onc(-c2ccccc2)c1C#Cc1cncc(N)n1` [Example 46, 6-(5-Methyl-3-phenyl-isoxazol-4-ylethynyl)-pyrazin-2-ylamine], for which the Ki was found to be 18.3 nM.
